Our source for the outcome values is PubChem BioAssay AID1189 (EPA DSSTox, 2008).

The source made the active and inactive calls.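 Rule for the calls: active = a tumor-causing dose value with its tumor site reported for any sex and species group of a rodent or other animal cancer study; inconclusive = only studies judged inadequate by the national testing program; inactive = tested in at least one study, none positive.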

This data set can be described thus: DSSTox (CPDBAS) Carcinogenic Potency Database Summary SingleCellCall Results. The following applies: animal chronic carcinogenicity bioassays, CPDB summary call. Put shortly:
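Literature-derived summary: each substance receives an overall carcinogenic/non-carcinogenic category drawn from long-term bioassays in rats, mice, hamsters, dogs or primates, using the most positive sex-species experiment and minimal evidence criteria.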
Turning to `CCN=c1cc2oc3cc(NCC)c(C)cc3c(-c3ccccc3C(=O)OCC)c-2cc1C`, the outcome is “inactive; active”.

For the molecule `O=C(O)c1ccncc1`, the result was inactive.

`COc1cc(/C=C/C(=O)O[C@H]2CC[C@]34C[C@]35CC[C@]3(C)[C@@H]([C@H](C)CCC=C(C)C)CC[C@@]3(C)[C@@H]5CC[C@H]4C2(C)C)ccc1O`: the result was inactive.

As for `O=[N+]([O-])c1cc([As](=O)(O)O)ccc1O`, the outcome was inactive.

As to `CCNC(=S)NCC`, the result was active.

With `C=CCN(CC(C)=O)N=O`, the result was active.

For `CC(C)(CCCOc1ccc(OCCCC(C)(C)C(=O)O)c(-c2ccccc2)c1)C(=O)O`, the result was active.

As to `CC(=O)NN`, the result was active.

As for `O.[Cd+2].[Cl-].[Cl-]`, the outcome was inactive.

For `CC(C)(CO)CCCCCCC(C)(C)CO`, the outcome was inactive.

Take `CCCCCC(/C=C/C=C\CCCCCCCC(=O)OC)OO` (stereo not drawn): the outcome was inactive.

Take `C=CN1CCCC1=O`: the outcome is “active; inactive”.

As to `Cc1cccc(C)c1N`, the outcome was “inactive; active”.

Turning to `CCOP(=S)(OCC)Oc1ccc2c(C)c(Cl)c(=O)oc2c1`, the outcome was inactive.

With `Cc1cc(Cc2ccc(N)c(C)c2)ccc1N`, the result was active.

`CC(C)Cc1ccc(C(C)C(=O)O)cc1` (stereo not drawn): the outcome was inactive.

With `CC(F)(Cl)Cl`, the outcome was active.

Turning to `NS(=O)(=O)c1cc2c(cc1Cl)NCNS2(=O)=O`, the outcome was “inactive; active”.

Consider `N[C@@H](CCC(=O)NNc1ccc(CO)cc1)C(=O)O`, for which the outcome was inactive.

`COc1ccc(N)cc1`: the outcome was inactive.

Regarding `CC(C)COC(=O)c1ccc(O)cc1`, the result was inactive.

`O=[N+]([O-])c1ccc2ncccc2c1`: the outcome was “inactive; active”.

Take `CN(C)N`: the outcome was active.

On to `CN(CCCC(O)c1cccnc1)N=O` (stereo not drawn), for which the result was active.

Regarding `CN[C@@H](C)[C@H](O)c1ccccc1`, the outcome was inactive.

For the molecule `c1ccc(Nc2ccc(Nc3ccccc3)cc2)cc1`, the result was inactive.

`O=S(=O)(O)c1ccc(N=Nc2cc(S(=O)(=O)O)c3ccccc3c2O)c2ccccc12`: the outcome is “inactive; active”.

Regarding `O=NN1CCNCC1`, the outcome is “active; inactive”.

Take `[CH3][Hg][Cl]`: the outcome was active.

On to `CC(C)(Oc1ccc(C2CCCc3ccccc32)cc1)C(=O)O` (stereo not drawn), for which the outcome is “active; inactive”.

Take `NC(=O)N(CCc1ccccc1)N=O`: the result was active.

On to `O=C1C(Cl)=C(Cl)C(=O)c2ccccc21`, for which the result was inactive.

With `OCCOCCO`, the outcome was active.

On to `Nc1ccc(S(=O)(=O)c2ccc(N)cc2)cc1`, for which the result was active.

Turning to `O=C1CCN([C@@H]2O[C@H](CO)[C@@H](O)[C@H]2O)C(=O)N1`, the result was inactive.

On to `CC[N+]([O-])=NC`, for which the outcome was active.

With `C=C(C)CCl`, the outcome was “active; inactive”.

Take `COC(C(=O)O)c1ccccc1` (stereo not drawn): the outcome was “inactive; active”.

On to `Cc1cnc2ccc3c(nc(N)n3C)c2n1`, for which the result was active.

With `C/C=C1/C[C@@H](C)[C@](O)(CO)C(=O)OCC2=CC[N+]3([O-])CC[C@@H](OC1=O)[C@@H]23` (stereo partly drawn), the outcome was active.

Consider `CN(CCCC(=O)O)N=O`, for which the result was active.

Regarding `C=C1CC[C@H](O)C/C1=C/C=C1\CCC[C@]2(C)[C@@H]([C@H](C)CC[C@@H](O)C(C)(C)O)CC[C@@H]12`, the outcome is “inactive; active”.

Turning to `COc1cc(-c2ccc(N)c(OC)c2)ccc1N`, the outcome was “active; inactive”.

With `CC(=O)OC/C=C(\C)CCC=C(C)C`, the result was inactive.

Take `CCCN(N=O)C(N)=O`: the result was active.

For `O=C1CCC(=O)O1`, the outcome was inactive.

In the case of `Cc1ccc(N)cc1`, the outcome was active.

In the case of `O=S(=O)(Oc1ccc(Cl)cc1)c1ccc(Cl)cc1`, the outcome was inactive.

In the case of `O=C(N[C@H](CO)[C@H](O)c1ccc([N+](=O)[O-])cc1)C(Cl)Cl`, the result was inactive.

Turning to `CN(C)c1ccc(N=NS(=O)(=O)O)cc1`, the outcome was inactive.

As for `O=Cc1ccccc1`, the result was active.

On to `[Na+]`, for which the outcome was inactive.

Consider `CC(C)Oc1ccccc1OC(=O)N(C)N=O`, for which the outcome was active.

With `CC1=CC(=O)CC(C)(C)C1`, the result was active.

In the case of `CCCCN(CC)C(=O)SCCC`, the result was inactive.

Take `c1ccc2c(c1)[nH]c1ccccc12`: the result was active.

As for `CC(=O)O[C@H]1CC[C@@]2(C)C(=CC[C@@H]3[C@@H]2CC[C@]2(C)C(=O)CC[C@@H]32)C1`, the outcome was active.

On to `CCN=[N+]([O-])CC`, for which the outcome was active.

With `CN(N=O)c1ccc(/C=C/c2ccnc3ccccc23)cc1`, the outcome was active.

In the case of `CN(N=O)C(=O)c1ccccc1C(=O)N(C)N=O`, the outcome was inactive.

With `CN(C)C(=O)COC(=O)Cc1ccc(OC(=O)c2ccc(N=C(N)N)cc2)cc1`, the outcome was inactive.

Consider `C1CCC(C(CC2CCCCN2)C2CCCCC2)CC1` (stereo not drawn), for which the result was inactive.

For the molecule `NC(=O)Cc1cccc2ccccc12`, the outcome was “inactive; active”.

With `C=C1C(CCl)(CCl)C2(Cl)C(Cl)C(Cl)C1(Cl)C2(Cl)Cl` (stereo not drawn), the outcome was “active; inactive”.

In the case of `COc1cc(/C=C/C(=O)OCCc2ccccc2)ccc1O`, the outcome was “inactive; active”.

For `c1ccc2sc(SNC3CCCCC3)nc2c1`, the result was inactive.

Take `O=[N+]([O-])c1ccc(NCCO)c(OCCO)c1`: the result was inactive.

On to `CC[N+](=O)[O-]`, for which the result was inactive.

Regarding `CC(Oc1c(Cl)cccc1Cl)C1=NCCN1` (stereo not drawn), the outcome was inactive.

Consider `CC(Cl)C=O` (stereo not drawn), for which the result was active.

`CCN(Cc1cccc(S(=O)(=O)O)c1)c1ccc(C(=C2C=CC(=[N+](CC)Cc3cccc(S(=O)(=O)O)c3)C=C2)c2ccccc2S(=O)(=O)[O-])cc1`: the outcome was “inactive; active”.

As for `CS(=O)(=O)c1ccc([C@@H](O)[C@@H](CO)NC(=O)C(Cl)Cl)cc1`, the outcome was inactive.

With `O=[O+][O-]`, the outcome was active.

As to `CNCCc1ccc(OC(=O)C(C)C)c(OC(=O)C(C)C)c1`, the result was inactive.

For `c1ccc2sc(SSc3nc4ccccc4s3)nc2c1`, the result was inactive.

In the case of `Nc1cccc2ccccc12`, the outcome was active.

In the case of `O=C(O)CC[N+](=O)[O-]`, the outcome was “inactive; active”.

For the molecule `CC(=O)OC[C@]12C[C@H](OC(=O)CC(C)C)C(C)=C[C@H]1O[C@@H]1[C@H](O)[C@@H](OC(C)=O)[C@@]2(C)C12CO2` (stereo partly drawn), the outcome was “active; inactive”.

On to `CCBr`, for which the outcome was active.

As for `O=C1NC(c2ccc([N+](=O)[O-])s2)Nc2ccccc21` (stereo not drawn), the outcome was active.

In the case of `O.O.O.O.O=C([O-])CC(O)(CC(=O)[O-])C(=O)[O-].[Fe+3]`, the result was inactive.

As to `CCC1(CCC(C)C)C(=O)NC(=O)NC1=O`, the result was inactive.

Consider `Nc1cc([N+](=O)[O-])ccc1C(=O)O`, for which the outcome was inactive.

With `CN=C(N)N`, the outcome is “inactive; active”.

`CSCCC(N)C(=O)O` (stereo not drawn): the result was inactive.

In the case of `CN(C#N)N=O`, the outcome was active.

On to `Cc1ncc[nH]1`, for which the result was active.

For the molecule `CCOc1ccc(NC(C)=O)cc1[N+](=O)[O-]`, the outcome was active.

In the case of `O=[N+]([O-])/C=C/c1ccccc1`, the outcome was inactive.

Regarding `Nc1ccc(NC(=O)c2ccc(N)cc2)cc1`, the outcome was “inactive; active”.

In the case of `O=[N+]([O-])c1ccc2ccc3cccc4ccc1c2c34`, the outcome was active.

Regarding `O=c1cc[nH]c(=O)[nH]1`, the outcome was “active; inactive”.

In the case of `CCNC(=O)N(CCN(C)C)N=O`, the outcome was active.

For `ClC1(Cl)C2(Cl)C3C4(Cl)C1(Cl)C1(Cl)C4(Cl)C(Cl)(Cl)C3(Cl)C21Cl` (stereo not drawn), the outcome was “active; inactive”.

On to `C=CCN(CC(O)CO)N=O` (stereo not drawn), for which the result was active.

In the case of `CC(C)=CCC/C(C)=C/C=O`, the outcome was inactive.

For `CN(CCO)N=O`, the result was active.

For the molecule `CCOP(=O)=O.CCOP(=O)=O.CCOP(=O)=O.[Al+3]`, the outcome was “active; inactive”.

Take `CCCCC1C(=O)N(c2ccccc2)N(c2ccccc2)C1=O`: the outcome was “active; inactive”.

For `NC(=S)Nc1cccc2ccccc12`, the outcome was inactive.

For `O=C1CN(/N=C/c2ccc([N+](=O)[O-])o2)C(=O)N1`, the outcome was active.

For the molecule `CNc1ncnc2nc[nH]c12`, the result was inactive.

As to `C[C@@H]1O[C@@]2(CS1)CN1CCC2CC1`, the result was inactive.

`N=c1ccn2c(n1)O[C@H]1[C@H](O)[C@@H](CO)O[C@H]12`: the result was inactive.

Take `CC(=O)Nc1ccc(N=Nc2cc(C)ccc2O)cc1`: the outcome was “active; inactive”.

With `Cc1ccc(C)c(C)c1`, the outcome was active.

Regarding `CCc1ccccc1`, the result was active.

For `CC(C)Oc1ccc(Nc2ccccc2)cc1`, the result was inactive.

Regarding `C=CCOc1ccccc1OCC(O)CNC(C)C` (stereo not drawn), the result was inactive.

Consider `CN(C)C(=S)S[Se](SC(=S)N(C)C)(SC(=S)N(C)C)SC(=S)N(C)C`, for which the result was inactive.

Take `Cc1cn([C@H]2C[C@H](N=[N+]=[N-])[C@@H](CO)O2)c(=O)[nH]c1=O`: the result was active.

Consider `COc1cc2c(c3c1c(=O)c1ccccc1n3C)C=CC(C)(C)O2`, for which the outcome was “active; inactive”.

Turning to `Nc1ccc(N)c(Cl)c1`, the result was inactive.
